In US20240108634A1, “COMPOSITIONS AND METHODS FOR INHIBITING YAP” (The United States Government as represented by the …, priority 2021, published 2024):

What was measured:
YAP-TEAD interaction = molecular target: T1, YAP-TEAD interaction (Homo sapiens, UniProt P46937); test: Co-immunoprecipitation of myc-TEAD with HA-YAP from treated LN229 cells; type: cell-based; details: LN229 GBM cells, 24 h
T1 construct: expressed in transfected cells; host or cells: LN229
Method: FIGS. 1A-G show the identification of a YAP1-TEAD1 binding interface inhibitor. […] The Gal4 DBD was fused to residues 50-171 of human YAP1 and the Gal4 AD was fused to residues 194-411 of human TEAD1. These fusions were expressed in yeast containing reporters harboring Gal4 upstream activating sequences (UAS). […] Yeast expressing either p53-DBD and SV40 large T antigen-AD fusions or YAP1-DBD and TEAD1-AD fusions were plated on selective media. Compounds were pinned onto the plate surfaces by robotic transfer and subsequently examined for halo formation (indicated by red circles). Compounds inhibiting YAP1-TEAD1 mediated growth on selective media while having no effect on p53-T antigen mediated yeast growth were considered specific. Compounds which blocked the growth of both strains were considered nonspecific and were classified as having general antifungal properties. […] His-tagged YAP (amino acids 50-171 of Accession No. NP_006097) was used in a GST pull-down assay using GST-TEAD (amino acids 194-411 of Accession No. NP_068780) immobilized on glutathione resin. Pull-down products were analyzed by SDS-PAGE and silver staining. […] Cells treated with antimycin A are shown as a negative control. […] Raw binding sensorgrams obtained at each concentration were fitted to a 1:1 binding model and Kon, Koff and KD were calculated by simultaneous non-linear regression analyses.
Protein and mRNA analyses, immunoprecipitation, in vitro bead-coupled inhibitor binding assays and HPLC analyses. […] Antigen-antibody complexes were detected using appropriate horseradish peroxidase-conjugated secondary antibodies (GE Healthcare) and enhanced chemiluminescence (Amersham ECL Prime). […] For quantitative RT-PCR, extraction of RNA was performed using Trizol® (Life Technologies). Total RNA was then quantified and integrity assessed using an Agilent 2100 Bioanalyzer (Agilent Technology). […] SYBR® Green quantitative PCR (Millipore Sigma) was performed in triplicate in 96-well optical plates on an ABI Prism 7000 Sequence Detection System (Life Technologies) according to the manufacturer's instructions. […]

LN229 and GBM39 cells = test: Matrigel invasion assay; type: cell-based, human; details: Matrigel-coated membranes
From the text: Cells were layered in soft agar to evaluate anchorage-independent growth in the presence of the indicated concentrations of inhibitor and colonies counted following 14 days of growth. Representative crystal violet stained images are shown below. Data represent mean+S.D. of three independent experiments. […] Cells were placed in Boyden chambers and allowed to migrate towards BSA (white bars), vitronectin (light yellow bars), or fibronectin (dark yellow bars) (*, P<0.05; n=3). […] Representative crystal violet stained images are shown (200×). Data represent mean+S.D. of three independent experiments. […] Graphical data shown below represent mean+S.D. (late apoptosis; annexin V-positive, PI-positive) of three independent experiments.
Cell proliferation, clonogenic, migration, invasion and apoptosis assays. Cell proliferation was determined via Cell Titer-Glo® luminescent cell assays (Promega). Clonogenic assays were done by plating a total of 1,000 cells per well in 24-well plates in a total volume of 400 μL using a two-layered soft agar system as previously described (Masri J, et al. (2007) Cancer Res 67: 11712-11720). Cell migration assays were conducted using precoated modified Boyden chambers as previously described (Benavides-Serrato A, et al. (2017) PLoS One 12: e0176599). […]

normal human neurons = test: TUNEL staining of normal human neurons; type: cell-based; details: 48 h exposures
From the text: Data shown are mean+S.D., n=3.
Materials and Methods. Cell culture, vectors and reagents. Normal mature human neurons were obtained from ScienCell (Carlsbad, CA). Lines were routinely tested to confirm the absence of mycoplasma and authenticated by short tandem repeat profiling (ATCC). The myc-tagged TEAD (pRK5-Myc-TEAD1) and HA-tagged YAP1 (pCl-HA-YAP) vectors were used for mammalian expression and TEAD was subcloned into pGEX-2TK, while YAP was subcloned into pET-14b for bacterial expression and purification. DNA transfections were performed using Effectene transfection reagent according to the manufacturer (QIAGEN) and lentiviral transductions were performed as previously described (Rosenbluh J, et al. (2012) Cell 151: 1457-1473). Large-scale syntheses of NSC682769 was performed by New England Discovery Partners, Branford, CT. The other reagents including kits for ALT, AST and creatinine level determinations were from Sigma-Aldrich.

T1 sequence (P46937 whole entry): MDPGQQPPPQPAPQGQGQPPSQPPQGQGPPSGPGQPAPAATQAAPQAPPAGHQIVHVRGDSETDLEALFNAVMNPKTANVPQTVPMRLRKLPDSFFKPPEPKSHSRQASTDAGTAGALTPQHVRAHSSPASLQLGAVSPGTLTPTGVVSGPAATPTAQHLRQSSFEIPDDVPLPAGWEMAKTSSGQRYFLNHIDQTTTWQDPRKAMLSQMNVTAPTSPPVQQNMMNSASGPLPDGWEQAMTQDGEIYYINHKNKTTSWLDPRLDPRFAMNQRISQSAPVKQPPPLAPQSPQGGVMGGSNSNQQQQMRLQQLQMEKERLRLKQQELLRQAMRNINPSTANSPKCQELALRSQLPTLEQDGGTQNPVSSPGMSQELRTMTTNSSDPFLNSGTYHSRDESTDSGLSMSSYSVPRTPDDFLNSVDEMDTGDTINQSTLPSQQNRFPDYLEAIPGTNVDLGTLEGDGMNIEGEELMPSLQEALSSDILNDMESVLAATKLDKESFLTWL

In the case of `COc1ccc(-c2cc(-c3ccccc3)nc3c2CC(=O)Nc2ccccc2-3)cc1OC` [NSC682769], the “Association of YAP1 with TEAD1 in YAP1 immunoprecipitates” value (YAP-TEAD interaction) is reported as “blocked the association of YAP1 with TEAD1”, the Cell invasiveness (LN229 and GBM39 cells) is reported as “reduced the number of cells able to traverse Matrigel-coated membranes” and the “Toxicity to normal human neurons” value (normal human neurons) is reported as “minimal toxicity”.
